Reference: patent US7157083B2, “Compositions and methods for treating retroviral infections” (priority 1998, dated 2007)

Test system: IIIB (HIV IIIB virus)
Assay: Study 4 sensitization, Turpin and standard macrophages: RT activity after IIIB challenge
Type: cell-based
Description: Percent virus control (% VC) in the following tables is the mean RT activity (cpm) as a percentage of a virus control. Percent cell control (% CC) is the mean XTT absorbance as a percentage of a cell control.
Reverse transcriptase (RT) activity was measured in cell-free supernatants. Tritiated thymidine triphosphate (NEN) (TTP) was resuspended in distilled H2O at […]. Poly rA and oligo dT were prepared as a stock solution which was kept at −20° C. The RT reaction buffer was prepared fresh on a daily basis and consists of 125 μL 1.0 M EGTA, 125 μL d H2O, 110 μL 10% SDS, 50 μL 1.0 M Tris (pH 7.4), 50 μL 1.0 M DTT, and 40μ1.0 M MgCl2. These three solutions were mixed together in a ratio of 2 parts TTP, 1 part poly rA:oligo dT, and 1 part reaction buffer. Ten microliters of this reaction mixture was placed in a round bottom microtiter plate and 15 μL of virus containing supernatant was added and mixed. The plate was incubated at 37° C. in a water bath with a solid support to prevent submersion of the plate and incubated for 60 minutes. Following reaction, the reaction volume was spotted onto pieces of DE81 paper, washed 5 times for 5 minutes each in a 5% sodium phosphate buffer, 2 times for 1 minute each in distilled water, 2 times for 1 minute each in 70% ethanol, and then dried. Opti-Fluor O was added to each sample and incorporated radioactivity was quantitated utilizing a Wallace 1450 Microbetaplus liquid scintillation counter.
The macrophage plates were then washed with HBSS multiple times. Fresh mixed pha blast PBMCs (5×10e4/well) were placed on the macrophage cells, allowed to incubate for 72 hours and then harvested and reset in a fresh 96 well plate. The PBMCs were then challenged overnight with the respective virus (IIIB or Rojo) at a standard MOI for that virus. The PBMCs were 5× in plate spin washed with DPBS, incubated 24 hours, at which time 5×10e4 fresh pha blast PBMCs/well were added. The culture was incubated an additional 6 days and then assayed for RT activity.
Where viability corrections were conducted, they were performed by dividing the RT CPM value by the toxicity absorbance in order to compensate for well to well variations noted in the cell titer toxicity noted.

In the case of Hyaluronidase, the “RT activity % VC” value (0.195313 μg/mL, GP120IIIB Sensitized, Turpin) is reported as 108.1%, the “RT activity % VC” value (0.195313 μg/mL, IIIB Sensitized, Standard) is reported as 178.1% and the “RT activity % VC” value (0.195313 μg/mL, IIIB Sensitized, Turpin) is reported as 95.8%. For the same substance, the “RT activity % VC” value (0.390625 μg/mL, GP120IIIB Sensitized, Standard) was 87.7%, the “RT activity % VC” value (0.390625 μg/mL, GP120IIIB Sensitized, Turpin) was 83.5% and the “RT activity % VC” value (0.390625 μg/mL, IIIB Sensitized, Standard) was 181.3%. For the same substance, the “RT activity % VC” value (0.78125 μg/mL, GP120IIIB Sensitized, Standard) was 94.5%, the “RT activity % VC” value (0.78125 μg/mL, GP120IIIB Sensitized, Turpin) was 105.6% and the “RT activity % VC” value (0.78125 μg/mL, IIIB Sensitized, Standard) was 129.9%. The “RT activity % VC” value (0.78125 μg/mL, IIIB Sensitized, Turpin) was 100.0%, the “RT activity % VC” value (1.5625 μg/mL, GP120IIIB Sensitized, Standard) was 100.7% and the “RT activity % VC” value (1.5625 μg/mL, GP120IIIB Sensitized, Turpin) was 58.0%. The “RT activity % VC” value (1.5625 μg/mL, IIIB Sensitized, Standard) was 203.0%, the “RT activity % VC” value (1.5625 μg/mL, IIIB Sensitized, Turpin) was 68.3% and the “RT activity % VC” value (3.125 μg/mL, GP120IIIB Sensitized, Standard) was 82.3%. For the same substance, the “RT activity % VC” value (3.125 μg/mL, GP120IIIB Sensitized, Turpin) was 71.2%, the “RT activity % VC” value (3.125 μg/mL, IIIB Sensitized, Standard) was 120.8% and the “RT activity % VC” value (6.25 μg/mL, GP120IIIB Sensitized, Standard) was 106.5%. The “RT activity % VC” value (6.25 μg/mL, GP120IIIB Sensitized, Turpin) was 72.2%, the “RT activity % VC” value (6.25 μg/mL, IIIB Sensitized, Standard) was 234.4% and the “RT activity % VC” value (6.25 μg/mL, IIIB Sensitized, Turpin) was 70.0%. The “RT activity % VC” value (25 μg/mL, GP120IIIB Sensitized, Standard) was 70.6%, the “RT activity % VC” value (25 μg/mL, GP120IIIB Sensitized, Turpin) was 52.1% and the “RT activity % VC” value (25 μg/mL, IIIB Sensitized, Standard) was 99.8%. For the same substance, the “RT activity % VC” value (25 μg/mL, IIIB Sensitized, Turpin) was 23.6%, the “RT activity % VC” value (viability corrected, 0.097656 μg/mL, GP120IIIB Sensitized, Standard) was 105.6% and the “RT activity % VC” value (viability corrected, 0.097656 μg/mL, GP120IIIB Sensitized, Turpin) was 116.0%. For the same substance, the “RT activity % VC” value (viability corrected, 0.097656 μg/mL, IIIB Sensitized, Standard) was 103.7%, the “RT activity % VC” value (viability corrected, 0.097656 μg/mL, IIIB Sensitized, Turpin) was 95.3% and the “RT activity % VC” value (viability corrected, 0.195313 μg/mL, GP120IIIB Sensitized, Standard) was 83.8%. The “RT activity % VC” value (viability corrected, 0.195313 μg/mL, GP120IIIB Sensitized, Turpin) was 111.2%, the “RT activity % VC” value (viability corrected, 0.195313 μg/mL, IIIB Sensitized, Standard) was 141.1% and the “RT activity % VC” value (viability corrected, 0.195313 μg/mL, IIIB Sensitized, Turpin) was 110.9%. For the same substance, the “RT activity % VC” value (viability corrected, 0.390625 μg/mL, GP120IIIB Sensitized, Standard) was 74.2%, the “RT activity % VC” value (viability corrected, 0.390625 μg/mL, GP120IIIB Sensitized, Turpin) was 122.4% and the “RT activity % VC” value (viability corrected, 0.390625 μg/mL, IIIB Sensitized, Standard) was 177.8%. For the same substance, the “RT activity % VC” value (viability corrected, 0.390625 μg/mL, IIIB Sensitized, Turpin) was 98.3%, the “RT activity % VC” value (viability corrected, 0.78125 μg/mL, GP120IIIB Sensitized, Standard) was 100.5% and the “RT activity % VC” value (viability corrected, 0.78125 μg/mL, GP120IIIB Sensitized, Turpin) was 115.4%. For the same substance, the “RT activity % VC” value (viability corrected, 0.78125 μg/mL, IIIB Sensitized, Standard) was 117.6%, the “RT activity % VC” value (viability corrected, 0.78125 μg/mL, IIIB Sensitized, Turpin) was 95.5% and the “RT activity % VC” value (viability corrected, 1.5625 μg/mL, GP120IIIB Sensitized, Standard) was 97.2%. The “RT activity % VC” value (viability corrected, 1.5625 μg/mL, GP120IIIB Sensitized, Turpin) was 74.4%, the “RT activity % VC” value (viability corrected, 1.5625 μg/mL, IIIB Sensitized, Standard) was 189.1% and the “RT activity % VC” value (viability corrected, 1.5625 μg/mL, IIIB Sensitized, Turpin) was 79.6%. For the same substance, the “RT activity % VC” value (viability corrected, 3.125 μg/mL, GP120IIIB Sensitized, Standard) was 76.1%, the “RT activity % VC” value (viability corrected, 3.125 μg/mL, GP120IIIB Sensitized, Turpin) was 79.0% and the “RT activity % VC” value (viability corrected, 3.125 μg/mL, IIIB Sensitized, Standard) was 115.2%. The “RT activity % VC” value (viability corrected, 3.125 μg/mL, IIIB Sensitized, Turpin) was 106.2%, the “RT activity % VC” value (viability corrected, 6.25 μg/mL, GP120IIIB Sensitized, Standard) was 95.2% and the “RT activity % VC” value (viability corrected, 6.25 μg/mL, GP120IIIB Sensitized, Turpin) was 96.0%. The “RT activity % VC” value (viability corrected, 6.25 μg/mL, IIIB Sensitized, Standard) was 181.7%, the “RT activity % VC” value (viability corrected, 6.25 μg/mL, IIIB Sensitized, Turpin) was 63.4% and the “RT activity % VC” value (viability corrected, 25 μg/mL, GP120IIIB Sensitized, Standard) was 81.6%. For the same substance, the “RT activity % VC” value (viability corrected, 25 μg/mL, GP120IIIB Sensitized, Turpin) was 54.1%, the “RT activity % VC” value (viability corrected, 25 μg/mL, IIIB Sensitized, Standard) was 124.6% and the “RT activity % VC” value (viability corrected, 25 μg/mL, IIIB Sensitized, Turpin) was 26.6%.
